Measured values: publication PMC10610214 (Pharmaceuticals, 2023)
Read-outs that look alike come from different tables or passages of the source.

How the values were obtained:
mice = test: LD50 determination in mice (Bliss method); assay type: in vivo, C57BL mice; conditions: intragastric 7 days
Method: Male C57BL mice (18–23 g; 8 weeks old) were purchased from the Experimental Center of Anhui University of Traditional Chinese Medicine. Mice were reared in a temperature and humidity controlled environment with free access to food and water, with self-adaptive rearing for 4 days.
Thirty mice were randomly divided into five groups, and the death of each group was counted after 7 days of intragastric administration (100, 80, 64, 51.2, 40.96 mg/kg). The Bliss method was used to calculate the LD50 and 95% confidence limit.

AChE = target: T1, AChE (Electrophorus electricus, UniProt O42275); assay type: biochemical; conditions: for AChE activity after dilution (reversibility): control 100
T1 construct: AChE (from electric eel); purchased Sigma Chemical Company (St. Louis, MO, USA)
T1 sequence (O42275 24-633): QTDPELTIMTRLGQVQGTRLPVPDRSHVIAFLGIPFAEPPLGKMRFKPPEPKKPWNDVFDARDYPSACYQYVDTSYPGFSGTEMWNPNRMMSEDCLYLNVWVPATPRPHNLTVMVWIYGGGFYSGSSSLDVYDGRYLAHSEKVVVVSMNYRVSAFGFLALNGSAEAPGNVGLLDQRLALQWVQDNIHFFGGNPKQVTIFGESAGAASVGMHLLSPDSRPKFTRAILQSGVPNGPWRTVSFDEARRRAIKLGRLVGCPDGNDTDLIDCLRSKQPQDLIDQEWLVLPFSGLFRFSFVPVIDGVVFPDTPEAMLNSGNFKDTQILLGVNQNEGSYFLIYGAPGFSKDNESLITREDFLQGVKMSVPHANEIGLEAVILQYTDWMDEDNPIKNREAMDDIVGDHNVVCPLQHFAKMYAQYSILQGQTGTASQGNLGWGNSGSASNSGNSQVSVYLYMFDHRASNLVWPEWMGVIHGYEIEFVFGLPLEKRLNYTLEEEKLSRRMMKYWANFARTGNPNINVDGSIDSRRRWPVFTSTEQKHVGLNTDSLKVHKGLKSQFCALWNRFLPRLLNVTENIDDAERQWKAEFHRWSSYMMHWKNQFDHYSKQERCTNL
Method: (§1) The activities of the diluted residual enzymes were measured by Ellman’s modified method.
(§2) Reversibility studies were performed using a modified Ellman’s dilution method to measure the activity of the diluted residual enzyme. The AChE/BuChE (0.5 U/mL), ATCI/BTCI (0.01 M) and DTNB (0.01 M) were diluted with phosphate buffer pH = 7.4. […] At the end of incubation, 20 μL of DTNB solution was added to them. […] All the measured results are expressed as the mean ± SEM of the three independent experiments.

iNOS = iNOS expression in LPS-stimulated BV2 cells (Western blot); assay type: cell-based; conditions: 1, 2, 4 μM
Method: BV2 cells were seeded into a 6-well plate at a density of 3.0 × 10^5 cells per well. After incubation overnight, the old medium was discarded. Then, the cells were pretreated with various concentrations (1, 2, and 4 μM) of 4h for 1 h and then co-incubated with LPS (1 μg/mL) for 24 h. After incubation was completed, the cells were washed twice with PBS, and 300 μL of cell lysis buffer (RIRA lysis buffer, phosphatase inhibitor, protease inhibitor, and PMSF) was added to each well. The cells were then incubated on ice for 30 min and centrifuged at 12,000 rpm at 4 °C for 30 min to collect the supernatant. The protein content in the supernatant was detected using the BCA protein detection kit (Beyotime, Shanghai, China). Total proteins were separated by 10% SDS-PAGE and then transferred from the gel to a PVDF membrane (Sigma-Aldrich, Shanghai, China). The membranes were blocked in TBST solution containing 5% skimmed milk for 2 h. Next, the membranes were washed three times (TBST) and incubated with primary antibody dilution (Cell Signaling Technologies, Boston, MA, USA) overnight at 4 °C. Then, they were washed another three times (TBST), incubated with the secondary antibody at room temperature for 90 min, and then washed three times with TBST. The blots were visualized by a chemiluminescence imager (Tanon 5200, Shanghai, China).

BuChE = target: T2, BuChE (Equus caballus, UniProt P81908); test: Reversibility of BuChE inhibition, dilution method; assay type: biochemical; conditions: for BuChE activity after dilution (reversibility): control 100
T2 construct: BuChE (from equine serum); purchased Sigma Chemical Company (St. Louis, MO, USA); host or cells: equine serum
T2 sequence (P81908 whole entry): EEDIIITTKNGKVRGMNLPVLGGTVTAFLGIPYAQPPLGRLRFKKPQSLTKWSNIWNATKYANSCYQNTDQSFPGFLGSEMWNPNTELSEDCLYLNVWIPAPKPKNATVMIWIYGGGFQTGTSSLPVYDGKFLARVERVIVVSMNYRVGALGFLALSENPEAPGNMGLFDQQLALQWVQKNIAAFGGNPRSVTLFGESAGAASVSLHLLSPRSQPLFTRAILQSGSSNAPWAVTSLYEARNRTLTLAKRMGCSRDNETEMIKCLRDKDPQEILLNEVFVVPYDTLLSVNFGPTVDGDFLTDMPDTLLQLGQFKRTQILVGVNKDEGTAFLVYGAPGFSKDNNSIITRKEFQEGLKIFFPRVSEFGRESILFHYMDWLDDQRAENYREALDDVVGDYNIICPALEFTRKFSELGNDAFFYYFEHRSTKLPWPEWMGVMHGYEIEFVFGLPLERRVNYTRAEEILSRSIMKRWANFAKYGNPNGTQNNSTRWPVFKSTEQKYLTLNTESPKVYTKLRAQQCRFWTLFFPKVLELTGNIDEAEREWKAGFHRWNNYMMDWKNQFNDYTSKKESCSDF
Method: as §1, §2

HepG2 cells = test: Hepatotoxicity in HepG2 cells (MTT); assay type: cell-based; conditions: 10, 30 and 50 μM
Method: The hepatotoxicity of compound 4h in normal AML-12 hepatocytes and HepG2 liver cancer cells was examined by MTT method. AML-12 cells and HepG2 cells were seeded into 96-well plates at a density of 5.0 × 10^3 cells per well, respectively. After the cells were incubated overnight, the old medium was discarded. The cells were incubated for 48 h with fresh medium containing various concentrations of the test compound. After 48 h of incubation, 20 μL of MTT (5 mg/mL) was added to each well and incubate for an additional 4 h. Formazan was dissolved with DMSO (150 μL). […]

IL-1β in BV2 cells = test: IL-1β secretion in LPS-stimulated BV2 cells (ELISA); assay type: cell-based; conditions: Mus musculus, BV-2, 24 h, read-out: IL-1β inhibition IC50
Method: The cytotoxicity of compounds on BV2 cells were evaluated by MTT assay and similar to those described in Section 2.5. The NO concentrations in medium were determined using Griess Reagent assay (Beyotime) in accordance with a previously reported method. Nitrite is reduced to nitrogen oxide using Griess Reagent I. Nitrogen oxide then reacts with Griess Reagent II forming a stable product that can be detected by its absorbance at […]. The two-step assay is simple, fast, and can detect nitrite levels as low as 1 nmol/well. BV2 cells were seeded into a 48-well plate at a density of 6.0 × 10^4 cells per well. After the cells were incubated overnight, the old medium was discarded. Then, the cells were pretreated with various concentrations (10, 5, 1, 0.5, and 0.1 μM) of compounds for 1 h and then co-incubated with LPS (1 μg/mL, 30 μL/well) for 24 h. After 24 h, the cell supernatant (50 μL/well) was placed into a new 96-well plate for experiment. […] The absorbance at […] was measured by a microplate reader.
The contents of TNF-α and IL-β in the cell supernatant were measured via ELISA (Jyimei, Wuhan, China) following the manufacturer’s instructions.

[1] = final inhibitor 0.1 × IC50 after 100-fold dilution
[2] = final inhibitor 1 × IC50 after 100-fold dilution

O=C1c2cc(NS(=O)(=O)c3ccccc3F)ccc2-n2c1nc1ccccc1c2=O [4h]
Mortality rate (%) (mice; 40.96 mg/kg): 0%
Number of deaths (mice; 40.96 mg/kg): 0
Mortality rate (%) (mice; 51.2 mg/kg): 0%
Number of deaths (mice; 51.2 mg/kg): 0
Mortality rate (%) (mice; 64 mg/kg): 16.7%
Number of deaths (mice; 64 mg/kg): 1
Mortality rate (%) (mice; 80 mg/kg): 50%
Number of deaths (mice; 80 mg/kg): 3
Mortality rate (%) (mice; 100 mg/kg): 66.7%
Number of deaths (mice; 100 mg/kg): 4
Reversibility of AChE inhibition (AChE; dilution method): reversible inhibitor
AChE activity after dilution (reversibility) (AChE; [1]): 87.2 ± 0.92
AChE activity after dilution (reversibility) (AChE; [2]): 72.3 ± 1.03
iNOS expression (iNOS): significantly decreased the expression of COX-2 and iNOS
Reversibility of BuChE inhibition (BuChE; dilution method): reversible inhibitor
BuChE activity after dilution (reversibility) (BuChE; [1]): 92.2 ± 0.52
BuChE activity after dilution (reversibility) (BuChE; [2]): 84.9 ± 1.2
Hepatotoxicity in HepG2 cells (HepG2 cells): had no toxicity
IC50 (IL-1β in BV2 cells): 1780 ± 210 nM
